According to patent publication US12084420B2, “Indoline compounds for inhibiting KIF18A” (Volastra Therapeutics, Inc., priority 2021, dated 2024):
pIC50, pKi: −log10 of the molar value. Like-named read-outs stand apart in the source and are kept apart here.

Columns and labels:
[1] = target: KIF18a-Microtubule Complex (Homo sapiens (Human), UniProt Q8NI77); experiment: Binding kinetics to KIF18a-microtubule complex (global progress curve analysis); conditions: for kon (on-rate from binding kinetics assay) / koff (off-rate from binding kinetics assay): global progress curve analysis; for pKi: read-out: KI (determined from binding kinetic assay koff/kon), koff/kon; for koff: read-out: koff (off-rate from binding kinetics assay)
KIF18a-Microtubule Complex, sequence (Q8NI77 whole entry, looked up): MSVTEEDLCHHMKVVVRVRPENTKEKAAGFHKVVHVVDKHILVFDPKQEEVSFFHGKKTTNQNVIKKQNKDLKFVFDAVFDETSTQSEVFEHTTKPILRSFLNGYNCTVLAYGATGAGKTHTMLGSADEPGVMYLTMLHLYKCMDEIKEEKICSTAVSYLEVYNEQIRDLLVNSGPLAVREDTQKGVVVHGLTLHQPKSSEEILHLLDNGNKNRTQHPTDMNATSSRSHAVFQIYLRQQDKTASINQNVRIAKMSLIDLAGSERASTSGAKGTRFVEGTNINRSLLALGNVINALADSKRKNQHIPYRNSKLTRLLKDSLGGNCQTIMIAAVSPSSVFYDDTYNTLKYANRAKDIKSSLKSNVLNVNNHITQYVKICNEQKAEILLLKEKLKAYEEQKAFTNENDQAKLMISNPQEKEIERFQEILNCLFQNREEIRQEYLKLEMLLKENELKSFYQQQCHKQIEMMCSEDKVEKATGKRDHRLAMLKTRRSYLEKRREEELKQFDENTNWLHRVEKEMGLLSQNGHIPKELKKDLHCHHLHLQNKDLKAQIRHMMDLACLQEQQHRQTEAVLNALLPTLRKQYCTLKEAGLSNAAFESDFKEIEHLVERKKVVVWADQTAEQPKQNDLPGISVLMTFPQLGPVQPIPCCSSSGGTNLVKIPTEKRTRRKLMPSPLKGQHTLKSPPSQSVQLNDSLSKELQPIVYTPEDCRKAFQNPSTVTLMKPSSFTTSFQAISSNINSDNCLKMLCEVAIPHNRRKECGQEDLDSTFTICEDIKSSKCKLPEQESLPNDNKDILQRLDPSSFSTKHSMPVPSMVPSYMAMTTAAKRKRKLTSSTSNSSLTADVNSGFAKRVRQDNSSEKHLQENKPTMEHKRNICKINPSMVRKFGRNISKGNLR
KIF18a-Microtubule Complex, sequence (Q2XVP4 whole entry partner, looked up): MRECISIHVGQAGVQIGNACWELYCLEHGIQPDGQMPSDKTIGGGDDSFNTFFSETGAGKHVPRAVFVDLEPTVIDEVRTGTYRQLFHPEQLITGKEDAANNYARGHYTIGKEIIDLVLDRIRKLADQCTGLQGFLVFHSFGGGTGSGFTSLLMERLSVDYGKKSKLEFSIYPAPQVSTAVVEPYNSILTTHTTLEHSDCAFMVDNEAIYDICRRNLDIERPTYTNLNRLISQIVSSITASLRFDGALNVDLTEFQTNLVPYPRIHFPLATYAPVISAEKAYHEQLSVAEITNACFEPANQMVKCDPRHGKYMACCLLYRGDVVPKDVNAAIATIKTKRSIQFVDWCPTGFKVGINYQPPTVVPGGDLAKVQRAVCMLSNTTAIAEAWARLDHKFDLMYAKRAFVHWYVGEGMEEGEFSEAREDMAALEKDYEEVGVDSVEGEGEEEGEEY
KIF18a-Microtubule Complex, sequence (P02554 whole entry partner, looked up): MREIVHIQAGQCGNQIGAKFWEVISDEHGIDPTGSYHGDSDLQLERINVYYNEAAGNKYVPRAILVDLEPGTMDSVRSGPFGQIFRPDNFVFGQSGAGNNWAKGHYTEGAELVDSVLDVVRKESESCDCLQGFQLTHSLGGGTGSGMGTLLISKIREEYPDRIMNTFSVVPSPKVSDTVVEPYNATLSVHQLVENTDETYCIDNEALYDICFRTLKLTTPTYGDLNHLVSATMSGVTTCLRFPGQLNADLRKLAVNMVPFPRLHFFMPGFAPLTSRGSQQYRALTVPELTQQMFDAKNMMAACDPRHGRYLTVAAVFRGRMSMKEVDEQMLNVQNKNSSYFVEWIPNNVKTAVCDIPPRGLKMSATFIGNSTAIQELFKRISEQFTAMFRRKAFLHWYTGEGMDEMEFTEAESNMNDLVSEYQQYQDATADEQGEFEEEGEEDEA
Method: Binding Kinetics to KIF18a-Microtubule Complex
Compound binding kinetics parameters (kon and koff) were determined by the method of global progress curve analysis (GPCA). […] ADP product levels were determined by the Promega® ADP-Glo assay. The time/dose-dependent progress curves were then globally fit to a Michaelis-Menten kinetics model with 1-step slow binding inhibition to derive both on-rate kon and off-rate koff values (Zhang, R., Wong, K. (2017): “High performance enzyme kinetics of turnover, activation and inhibition for translational drug discovery”, Expert Opinion on Drug Discovery, 2017 January; 12(1):17-37. doi: 10.1080/17460441.2017.1245721).

HCC15 cells = experiment: Cell viability of KIF18a-sensitive cell lines, HCC15 (Cell Titre-Glo, 7 days); assay type: cell-based
Method: (§1) Cell Viability of KIF18a-Sensitive Cell Lines
(§2) Cell lines were seeded as follows 24 hours before compound treatment: HCC15 (Korean Cell Line Bank) 600 cell/well, 95 μL of RPMI-1640 media supplemented with 100 units/mL penicillin, 100 units/mL streptomycin and 10% FBS; NIH:OVCAR-3 (ATCC), 1000 cell/well, 95 μL of RPMI-1640 media supplemented with 100 units/mL penicillin, 100 units/mL streptomycin, 0.01 mg/mL bovine insulin, and 20% FBS; JIMT-1 (Addexbio) 1000 cell/well, 95 μL of DMEM media supplemented with 100 units/mL penicillin, 100 units/mL streptomycin, and 10% FBS.
(§3) Test compounds were added to cells in a 20× dilution scheme by adding 5 μL of serially diluted compound to the plate, and the treated cells were incubated for an additional 7 days in a 37° C., 5% CO2 incubator. DMSO was used as the negative control (0% effect), and wells omitting cells were used as the positive control (100% effect). The cells were incubated for seven days, and cell viability determined via the Promega Cell Titre-Glo® Assay kit. Luminescence units were converted to ATP concentrations via an ATP standard curve (10 point, 2-fold dilution from 5 uM). % Inhibition was calculated for each well as: ([max−min]−[test−min])/[max−min]. IC50 values were calculated from concentration vs. % Inhibition data via a four-parameter variable slope model.

NIH:OVCAR-3 cells = experiment: Cell viability of KIF18a-sensitive cell lines, NIH:OVCAR-3 (Cell Titre-Glo, 7 days); assay type: cell-based
Method: as §1, §2, §3

JIMT-1 cells = experiment: Cell viability of KIF18a-sensitive cell lines, JIMT-1 (Cell Titre-Glo, 7 days); assay type: cell-based
Method: as §1, §2, §3

hKIF18A (1-374) = hKIF18A (1-374) (Homo sapiens (Human), UniProt Q8NI77); experiment: Inhibition of KIF18A microtubule-dependent ATPase activity (ADP-Glo); conditions: KIF18A microtubule-dependent ATPase activity, biochemical assay
hKIF18A (1-374), sequence (Q8NI77 whole entry, looked up): as the sequence (Q8NI77 whole entry, looked up) above
hKIF18A (1-374), sequence (Q2XVP4 whole entry partner, looked up): as the sequence (Q2XVP4 whole entry partner, looked up) above
hKIF18A (1-374), sequence (P02554 whole entry partner, looked up): as the sequence (P02554 whole entry partner, looked up) above
Method: Biological Assays Inhibition of KIF18A Microtubule-Dependent ATPase Activity:
Test compounds were plated in a 3× dilution scheme in a 384-well plate. Assay buffer: 80 mM PIPES (pH 6.9), 1 mM MgCl2, 75 mM KCl, 1 mM EGTA, 1 mM DTT, 0.01% BSA, 0.005% Tween-20, 1 μM Taxol in H2O. […] After incubation at room temperature for 30 min, 2.5 μL of microtubule mix was added [0.2 mg/mL pre-formed microtubules, 2.0 mM ATP in assay buffer], the plate was centrifuged for 30 s and then incubated at 28° C. for 60 min. 5 μL of Promega® ADP-Glo Max R1 was added, the plate was centrifuged for 30 s, and the mixture incubated for 4 h at room temperature. 10 μL of Promega® ADP-Glo Max R2 was added, the plate centrifuged for 30 s, and incubated for 60 min at room temperature. Luminescence was measured with an Envision plate reader, and % Inhibition was calculated for each well as: ([max−min]−[test−min])/[max−min]. IC50 values were calculated from concentration vs. % Inhibition data via a four-parameter variable slope model.

[2] = HCC15, 168 h, HCC-15 cells, 7 days, Cell Titre-Glo, read-out: HCC-15 IC50
[3] = Homo sapiens, OVCAR-3, 168 h, NIH-OVCAR3 cells, 7 days, Cell Titre-Glo, read-out: NIH-OVCAR3 IC50
[4] = Homo sapiens, 168 h, JIMT-1 cells, 7 days, Cell Titre-Glo, read-out: JIMT-1 IC50
[5] = HCC-15 cells, 7 days, Cell Titre-Glo, read-out: HCC-15 IC50
[6] = NIH-OVCAR3 cells, 7 days, Cell Titre-Glo, read-out: NIH-OVCAR3 IC50
[7] = JIMT-1 cells, 7 days, Cell Titre-Glo, read-out: JIMT-1 IC50

Row | SMILES | kon (on-rate from binding kinetics assay) [1] [M⁻¹ s⁻¹] | disc. t1/2 (dissociation half-life ln(2)/koff) ([1]; ln(2)/koff) [h] | pKi [1] | koff [1] [s⁻¹] | pIC50 (HCC15 cells; [2]) | pIC50 (NIH:OVCAR-3 cells; [3]) | pIC50 (hKIF18A (1-374)) | dissociation t1/2 ([1]; ln(2)/koff) [h] | pIC50 (HCC15 cells; HCC15, 168 h, read-out: IC50, cell viability HCC-15) | pIC50 (NIH:OVCAR-3 cells; Homo sapiens, OVCAR-3, 168 h, read-out: IC50, cell viability NIH: OVCAR3) | pIC50 (JIMT-1 cells; [4]) | koff (off-rate from binding kinetics assay) [1] [s⁻¹] | pIC50 (HCC15 cells; [5]) | pIC50 (NIH:OVCAR-3 cells; [6]) | pIC50 (JIMT-1 cells; [7]) | pIC50 (JIMT-1 cells; Homo sapiens, JIMT-1, 168 h, read-out: IC50, cell viability JIMT-1)
1 | COc1ccc(C(=O)N2CC3(CCC4(CC4)CC3)c3cc(NS(C)(=O)=O)ccc32)cc1S(=O)(=O)NC(C)(C)C [Compound 297, N-(tert-butyl)-2-methoxy-5-(5″-(methylsulfonamido)dispiro[cyclopropane-1,1′-cyclohexane-4′,3″-indoline]-1″-carbonyl)benzenesulfonamide] | 10300 | 49 | 9.42 | 3.89e-06 | 7.96 | 8.00 | 7.77 | – | – | – | 8.01 | – | – | – | – | –
2 | CC(C)(C)NS(=O)(=O)c1cc(C(=O)N2CC3(CCC4(CC4)CC3)c3cc(NS(C)(=O)=O)ccc32)ccc1F [Compound 159, N-(tert-butyl)-2-fluoro-5-(5″- (methylsulfonamido)dispiro[cyclopropane-1,1′-cyclohexane-4′,3″-indoline]-1″-carbonyl)benzenesulfonamide] | 7220 | 32 | 9.08 | 6.11e-06 | 7.68 | 7.66 | 7.72 | – | – | – | 7.82 | – | – | – | – | –
3 | CS(=O)(=O)Nc1ccc2c(c1)C1(CCC3(CC3)CC1)CN2C(=O)c1cccc(C(O)C2CCCC2)c1 (single isomer, unassigned) [Compound 165b] | 11900 | 4.2 | 8.41 | – | – | – | 8.00 | – | – | – | – | 4.72e-05 | 7.34 | 7.24 | 7.42 | –
4 | CC(C)(C)S(=O)(=O)Nc1cccc(C(=O)N2CC3(CCC4(CC4)CC3)c3cc(NS(C)(=O)=O)ccc32)c1 [Compound 355, 2-methyl-N-(3-(5″-(methylsulfonamido)dispiro[cyclopropane-1,1′-cyclohexane-4′,3″-indoline]-1″-carbonyl)phenyl)propane-2-sulfonamide] | – | – | – | – | 7.03 | 6.96 | 7.60 | – | – | – | 6.92 | – | – | – | – | –
5 | CS(=O)(=O)Nc1ccc2c(c1)C1(CCC3(CC3)CC1)CN2C(=O)c1cccc(C(O)C2CCCC2)c1 (single isomer, unassigned) [Compound 165a] | 11900 | 3.8 | 8.38 | – | – | – | 8.06 | – | – | – | – | 5e-05 | 7.17 | 7.23 | 7.35 | –
6 | O=C(c1cccc(S(=O)(=O)C2CCCC2)c1)N1CC2(CCC3(CC3)CC2)c2cc(NS(=O)(=O)CCO)ccc21 [Compound 229, N-(1″-(3-(cyclopentylsulfonyl)benzoyl)dispiro [cyclopropane-1,1′-cyclohexane-4′,3″- indolin]-5″-yl)-2-hydroxyethane-1-sulfonamide] | 16900 | 39 | 9.54 | 5e-06 | 7.96 | 7.89 | 8.21 | – | – | – | 7.96 | – | – | – | – | –
7 | CCS(=O)(=O)Nc1ccc2c(c1)C1(CCC3(CC3)CC1)CN2C(=O)c1cccc(S(=O)(=O)N2CC3(CCO3)C2)c1 [Compound 320, N-(1″-(3-((1-oxa-6-azaspiro[3.3]heptan-6-yl)sulfonyl)benzoyl)dispiro[cyclopropane-1,1′-cyclohexane-4′,3″-indolin]-5″- yl)ethanesulfonamide] | 7500 | 45 | 9.24 | 4.17e-06 | 7.68 | 7.70 | 7.74 | – | – | – | 7.85 | – | – | – | – | –
8 | CS(=O)(=O)Nc1ccc2c(c1)C1(CCC3(CC3)CC1)CN2C(=O)c1cccc(S(=O)(=O)NC2CC(F)(F)C2)c1 [Compound 192, N-(3,3-difluorocyclobutyl)-3-(5″- (methylsulfonamido)dispiro[cyclopropane-1,1′-cyclohexane-4′,3″-indoline]-1″-carbonyl)benzenesulfonamide] | 14400 | 21 | 9.19 | 9.17e-06 | 6.29 | 6.39 | 8.00 | – | – | – | 6.30 | – | – | – | – | –
9 | CC(C)(C)NS(=O)(=O)c1cccc(C(=O)N2CC3(CCC4(CC4)CC3)c3cc(NS(C)(=O)=O)c(F)cc32)c1 [Compound 309, N-(tert-butyl)-3-(6″-fluoro-5″-(methylsulfonamido)dispiro[cyclopropane-1,1′-cyclohexane-4′,3″-indoline]-1″-carbonyl)benzenesulfonamide] | – | – | – | – | 7.92 | 7.92 | 8.19 | – | – | – | 8.03 | – | – | – | – | –
10 | CS(=O)(=O)Nc1ccc2c(c1)C1(CCCCC1)CN2C(=O)c1cccc(C(O)C2CCCC2)c1 (stereo not shown) [Compound 157, N-(1′-(3-(cyclopentyl(hydroxy)methyl)benzoyl)spiro[cyclohexane-1,3′-indolin]-5′-yl)methanesulfonamide] | – | – | – | – | 6.22 | 6.14 | 7.24 | – | – | – | 6.36 | – | – | – | – | –
11 | CS(=O)(=O)Nc1ccc2c(c1)C1(CCC3(CC3)CC1)CN2C(=O)c1cccc(CN2CCC(F)(F)CC2)c1 [Compound 163, N-(1″-(3-((4,4-difluoropiperidin-1-yl)methyl)benzoyl)dispiro[cyclopropane-1,1′-cyclohexane-4′,3″-indolin]-5″- yl)methanesulfonamide] | – | – | – | – | 6.85 | 6.72 | 7.70 | – | – | – | 6.92 | – | – | – | – | –
12 | CCNc1ccc2c(c1)C1(CCC3(CC3)CC1)CN2C(=O)c1cccc(S(=O)(=O)N2CCC(F)(F)CC2)c1 [Compound 30, (3-((4,4-difluoropiperidin-1-yl)sulfonyl)phenyl)(5″-(ethylamino)dispiro[cyclopropane-1,1′-cyclohexane-4′,3″-indolin]-1″-yl)methanone] | – | – | – | – | 5.46 | 5.84 | 6.74 | – | – | – | 5.64 | – | – | – | – | –
13 | CC(C)(C)NS(=O)(=O)c1cccc(C(=O)N2CC3(CCC4(CC4)CC3)c3c2ccc(NS(C)(=O)=O)c3F)c1 [Compound 310, N-(tert-butyl)-3-(4″-fluoro-5″-(methylsulfonamido)dispiro[cyclopropane-1,1′-cyclohexane-4′,3″-indoline]-1″-carbonyl)benzenesulfonamide] | – | – | – | – | 7.96 | 8.04 | 8.18 | – | – | – | 8.10 | – | – | – | – | –

Now from value to compound, other results behind:

Row | kon (on-rate from binding kinetics assay) [1] [M⁻¹ s⁻¹] | disc. t1/2 (dissociation half-life ln(2)/koff) ([1]; ln(2)/koff) [h] | pKi [1] | koff [1] [s⁻¹] | pIC50 (HCC15 cells; [2]) | pIC50 (NIH:OVCAR-3 cells; [3]) | pIC50 (hKIF18A (1-374)) | dissociation t1/2 ([1]; ln(2)/koff) [h] | pIC50 (HCC15 cells; HCC15, 168 h, read-out: IC50, cell viability HCC-15) | pIC50 (NIH:OVCAR-3 cells; Homo sapiens, OVCAR-3, 168 h, read-out: IC50, cell viability NIH: OVCAR3) | SMILES | pIC50 (JIMT-1 cells; [4]) | koff (off-rate from binding kinetics assay) [1] [s⁻¹] | pIC50 (HCC15 cells; [5]) | pIC50 (NIH:OVCAR-3 cells; [6]) | pIC50 (JIMT-1 cells; [7]) | pIC50 (JIMT-1 cells; Homo sapiens, JIMT-1, 168 h, read-out: IC50, cell viability JIMT-1)
14 | – | – | – | – | – | – | 7.92 | – | – | – | CS(=O)(=O)Nc1ccc2c(c1)C1(CCC3(CC3)CC1)CN2C(=O)c1cccc(S(=N)(=O)C2CCCC2)c1 (single isomer, unassigned) [Compound 287b] | – | – | 7.01 | 7.48 | 7.19 | –
15 | – | – | – | – | – | – | – | 4.1 | 7.18 | 7.00 | Cc1cc(NC(=O)c2ccc(NS(=O)(=O)CCO)cc2N2CCC3(CC2)CC3)nc(N2CCC(F)(F)CC2)n1 [AMG650, 2-{6-azaspiro[2.5]octan-6-yl}-N-[2-(4,4-difluoropiperidin-1-yl)-6-methylpyrimidin-4-yl]-4-(2-hydroxyethanesulfonamido)benzamide, reference compound] | – | – | – | – | – | 6.89
